Source: ChEMBL document CHEMBL3621190, “Fused Morphlinopyrimidines and Methods of Use Thereof” (ACS Med Chem Lett, 2015)
pIC50: −log10 of the molar value.

Target: Gamma-secretase
Test: Inhibition of gamma-secretase in human H4 cells expressing human wild type […] cDNA assessed as reduction in amyloid beta peptides incubated for 16 to 18 hrs by ELISA method
Format: cell-based

`COc1cc(N2CCC(Nc3ncc4c(n3)N(c3ccc(Cl)cc3)CCO4)CC2)ccn1` was tested. Which pIC50 did it give?
Its pIC50 is 7.60.

How did the pIC50 turn out when `COc1cc(N2CCC(Nc3ncc4c(n3)N(c3ccc(F)cc3F)CCO4)CC2)ccn1` was run?
The pIC50 was 7.14.

`COc1cc(N2CCC(Nc3ncc4c(n3)N(c3ccccc3)CCO4)CC2)ccn1` was tested. Which pIC50 did it give?
The pIC50 was 7.60.

How did the pIC50 turn out when `Clc1cc(N2CCC(Nc3ncc4c(n3)N(c3ccccc3)CCO4)CC2)ccn1` was run?
The pIC50 was 7.27.

With `Cc1ccccc1N1CCOc2cnc(NC3CCN(c4ccnc(Cl)c4)CC3)nc21` as the molecule, how does the pIC50 read?
The pIC50 was 7.05.

With `COc1cc(N2CCC(Nc3ncc4c(n3)N(c3cc(F)cc(F)c3)CCO4)CC2)ccn1` as the molecule, how does the pIC50 read?
The pIC50 was 7.59.

`COc1cc(N2CCC(Nc3ncc4c(n3)N(c3ccccc3Cl)CCO4)CC2)ccn1` was tested. Which pIC50 did it give?
The pIC50 was 7.26.

With `COc1cc(N2CCC(Nc3ncc4c(n3)N(c3ccc(F)cc3C(F)(F)F)CCO4)CC2)ccn1` as the molecule, how does the pIC50 read?
The pIC50 was 7.92.

How did the pIC50 turn out when `COc1cc(N2CCC(Nc3ncc4c(n3)N(c3ccccc3OC(F)(F)F)CCO4)CC2)ccn1` was run?
The pIC50 was 7.68.

With `COc1cc(N2CCC(Nc3ncc4c(n3)N(c3ccccc3C)CCO4)CC2)ccn1` as the molecule, how does the pIC50 read?
Its pIC50 is 7.23.

With `COc1cc(N2CCC(Nc3ncc4c(n3)N(c3ccc(F)cc3)CCO4)CC2)ccn1` as the molecule, how does the pIC50 read?
Its pIC50 is 7.52.

How did the pIC50 turn out when `COc1cc(N2CCC(Nc3ncc4c(n3)N(c3cc(F)c(F)c(F)c3)CCO4)CC2)ccn1` was run?
Its pIC50 is 7.25.
